Assay results as given in patent publication US20250144067A1, “PERSONALIZED STARVATION THERAPY FOR CANCER” (Faeth Therapeutics, Inc., priority 2021, published 2025).
Counter-ions that a name gives are not always drawn. Like-named read-outs stand apart in the source and are kept apart here.

Assays:
[1] = test system: NCI-H292 lung cancer cells; assay: FDA drug screening, complete media vs cholesterol-free media without statin (TABLE 1); assay type: cell-based, human
[2] = test system: NCI-H292 lung cancer cells; assay: FDA drug screening, complete media vs cholesterol-free media with simvastatin (TABLE 2); assay type: cell-based, human
[3] = Complete minus Cholesterol-free, >0 enhanced anti-cancer activity, about 0 neutral, <0 antagonist
[4] = NCI-H292 cells, cholesterol-free media without statin, FDA drug library screen
[5] = NCI-H292 cells, complete media, FDA drug library screen
[6] = NCI-H292 cells, FDA drug library screen, cholesterol-free media with simvastatin 0.04 μM
[7] = NCI-H292 cells, FDA drug library screen, complete media
[8] = complete media minus cholesterol-free media + simvastatin, >0 enhanced anti-cancer activity, about 0 neutral, <0 antagonist
[9] = NCI-H292 cells, cholesterol-free media without statin
[10] = NCI-H292 cells, FDA drug library screen, cholesterol-free media without statin
[11] = complete media vs cholesterol-free media + simvastatin (0.04 μM), >0 enhanced anti-cancer activity, about 0 neutral, <0 antagonist
[12] = complete vs cholesterol-free media, greater than 0 enhanced anti-cancer activity, about 0 neutral, below 0 antagonists
[13] = NCI-H292 cells, drug in cholesterol-free media with simvastatin 0.04 μM
[14] = NCI-H292 cells, drug in complete media
[15] = Complete minus Cholesterol-free, […]
[16] = NCI-H292 cells, FDA library drug in cholesterol-free media with simvastatin 0.04 μM
[17] = NCI-H292 cells, FDA library drug in complete media
[18] = complete media vs cholesterol-free media + simvastatin (0.04 μM), […]
[19] = NCI-H292 cells, cholesterol-free media with simvastatin 0.04 μM, FDA drug library screen (TABLE 2)
[20] = NCI-H292 cells, complete media, FDA drug library screen (TABLE 2)
[21] = complete media minus cholesterol-free media + simvastatin (0.04 μM), […]
[22] = complete media minus cholesterol-free media + simvastatin (0.04 μM), >0 enhanced anti-cancer activity, about 0 neutral, <0 antagonist
[23] = complete vs cholesterol-free media, >0 enhanced anti-cancer activity, about 0 neutral, <0 antagonist

Cn1c(Cn2ccc(C(F)(F)F)c(Oc3cc(Cl)cc(C#N)c3)c2=O)n[nH]c1=O [Doravirine]
Difference [1, 3]: 0.06
Cholesterol-free [1, 4]: 0.8163
Complete [1, 5]: 0.8734
Cholesterol-free media + simvastatin (0.04 μM) [2, 6]: 1.425
Complete Media [2, 7]: 1.562
Difference [2, 8]: 0.14

O=C(O)c1cccnc1 [Niacin]
Difference [1, 3]: −0.27
Cholesterol-free [1, 9]: 1.266
Complete ([1]; NCI-H292 cells, complete media): 0.9994
Cholesterol-free media + simvastatin (0.04 μM) ([2]; NCI-H292 cells, cholesterol-free media with simvastatin 0.04 μM, cell growth value in FDA drug screen): 1.244
Complete Media ([2]; NCI-H292 cells, complete media, cell growth value in FDA drug screen): 1.362
Difference [2, 8]: 0.12

COc1cc2c(cc1OC)C(=O)C(CC1CCN(Cc3ccccc3)CC1)C2 (centres unmarked) [Donepezil]
Difference [1, 3]: 0.03
Cholesterol-free [1, 4]: 0.9537
Complete [1, 5]: 0.9881
Cholesterol-free media + simvastatin (0.04 μM) [2, 6]: 1.009
Complete Media [2, 7]: 1.62
Difference [2, 8]: 0.61

NCCC(O)(P(=O)([O-])O)P(=O)([O-])O.O.O.O.O.O.[Na+].[Na+] [Pamidronate (disodium pentahydrate)]
Difference ([1]; Complete minus Cholesterol-free, greater than 0 enhanced anti-cancer activity, about 0 neutral, below 0 antagonist): −0.12
Cholesterol-free [1, 10]: 1.305
Complete [1, 7]: 1.183
Cholesterol-free media + simvastatin (0.04 μM) [2, 6]: 1.169
Complete Media [2, 7]: 1.009
Difference [2, 11]: −0.16

C[C@]12CCC(=O)C=C1[C@@H]1C[C@@H]1[C@H]1[C@@H]3[C@@H]4C[C@@H]4[C@@]4(CCC(=O)O4)[C@@]3(C)CC[C@@H]12 [Drospirenone]
Cholesterol-free [1, 9]: 1.382
Complete ([1]; NCI-H292 cells, complete media): 1.062
Difference [1, 12]: −0.32
Cholesterol-free media + simvastatin (0.04 μM) [2, 13]: 1.4
Complete Media [2, 14]: 1.139
Difference [2, 11]: −0.26

COc1cc2c(cc1OC)[C@@H](Cc1cc(OC)c(OC)c(OC)c1)[N+](C)(CCCOC(=O)CC/C=C/CCC(=O)OCCC[N+]1(C)CCc3cc(OC)c(OC)cc3[C@H]1Cc1cc(OC)c(OC)c(OC)c1)CC2.[Cl-].[Cl-] (some centres unmarked) [Mivacurium (dichloride)]
Difference [1, 15]: −0.21
Cholesterol-free [1, 9]: 0.9248
Complete ([1]; NCI-H292 cells, complete media): 0.7178
Cholesterol-free media + simvastatin (0.04 μM) [2, 16]: 1.752
Complete Media [2, 17]: 1.463
Difference [2, 18]: −0.29

Toceranib (phosphate)
Cholesterol-free [1, 9]: 1.278
Complete ([1]; NCI-H292 cells, complete media): 0.9469
Difference [1, 12]: −0.33
Cholesterol-free media + simvastatin (0.04 μM) [2, 6]: 0.9001
Difference [2, 8]: 0.14

CC1=C(C(=O)Nc2ccccc2)SCCO1 [Carboxin]
Difference [1, 15]: −0.07
Cholesterol-free [1, 4]: 1.397
Complete [1, 5]: 1.326
Cholesterol-free media + simvastatin (0.04 μM) [2, 19]: 0.9577
Complete Media [2, 20]: 0.9272
Difference [2, 21]: −0.03

Gemifloxacin (mesylate)
Difference [1, 3]: −0.22
Cholesterol-free [1, 9]: 1.118
Complete ([1]; NCI-H292 cells, complete media): 0.9009
Cholesterol-free media + simvastatin (0.04 μM) [2, 6]: 0.9496
Complete Media [2, 7]: 1.098
Difference [2, 8]: 0.15

CSCCNc1nc(SCCC(F)(F)F)nc2c1ncn2[C@@H]1O[C@H](COP(=O)([O-])OP(=O)([O-])C(Cl)(Cl)P(=O)([O-])[O-])[C@@H](O)[C@H]1O.[Na+].[Na+].[Na+].[Na+] [Cangrelor (tetrasodium)]
Difference [1, 15]: −0.14
Cholesterol-free [1, 10]: 1.189
Complete [1, 7]: 1.05
Cholesterol-free media + simvastatin (0.04 μM) [2, 6]: 1.209
Complete Media [2, 7]: 1.098
Difference [2, 18]: −0.11

CC(C)(Oc1ccc(C(=O)c2ccc(Cl)cc2)cc1)C(=O)[O-].C[N+](C)(C)CCO [Choline Fenofibrate]
Difference ([1]; Complete minus Cholesterol-free, greater than 0 enhanced anti-cancer activity, about 0 neutral, below 0 antagonists): −0.65
Cholesterol-free ([1]; NCI-H292 cells in cholesterol-free media without statin): 1.252
Complete ([1]; NCI-H292 cells in complete media): 0.6045
Cholesterol-free media + simvastatin (0.04 μM) [2, 6]: 1.101
Complete Media [2, 7]: 1.295
Difference [2, 8]: 0.19

CC(C)OC(=O)C(C(=O)OC(C)C)=C1SC=CS1 [Malotilate]
Difference [1, 3]: −0.31
Cholesterol-free [1, 9]: 1.163
Complete ([1]; NCI-H292 cells, complete media): 0.8568
Cholesterol-free media + simvastatin (0.04 μM) [2, 16]: 1.172
Complete Media [2, 17]: 0.8557
Difference [2, 11]: −0.32

COc1cccc2c1C(=O)c1c(O)c3c(c(O)c1C2=O)C[C@@](O)(C(=O)CO)C[C@@H]3O[C@H]1C[C@H](N)[C@H](O[C@@H]2CCCCO2)[C@H](C)O1 [Pirarubicin (Hydrochloride)]
Difference [1, 15]: −0.09
Cholesterol-free [1, 10]: 0.6484
Complete [1, 7]: 0.5605
Cholesterol-free media + simvastatin (0.04 μM) [2, 19]: 0.5554
Complete Media [2, 20]: 0.5244
Difference [2, 21]: −0.03

CC(C)Cn1cnc2c(N)nc3ccccc3c21 [Imiquimod]
Cholesterol-free [1]: 0.6962
Complete [1]: 1.326
Difference [1]: 0.63
Cholesterol-free media + simvastatin (0.04 μM) [2]: 1.141
Complete Media [2]: 0.8713
Difference [2]: −0.27

COCCOC(=O)C1=C(C)NC(C)=C(C(=O)OC(C)C)C1c1cccc([N+](=O)[O-])c1 (centres unmarked) [Nimodipine]
Cholesterol-free [1, 9]: 1.269
Complete ([1]; NCI-H292 cells, complete media): 0.8907
Difference [1, 12]: −0.38
Cholesterol-free media + simvastatin (0.04 μM) [2, 19]: 1.215
Complete Media [2, 20]: 1.187
Difference [2, 22]: −0.03

CC1(C)S[C@@H]2[C@H](NC(=O)[C@H](NC(=O)N3CCN(S(C)(=O)=O)C3=O)c3ccccc3)C(=O)N2[C@H]1C(=O)[O-].[Na+] [Mezlocillin (sodium)]
Cholesterol-free [1, 4]: 0.8225
Complete [1, 5]: 1.264
Difference [1, 23]: 0.44
Cholesterol-free media + simvastatin (0.04 μM) [2, 13]: 1.179
Complete Media [2, 14]: 0.9159
Difference [2, 11]: −0.26

Cn1cnc([N+](=O)[O-])c1Sc1ncnc2nc[nH]c12 [Azathioprine]
Difference [1, 3]: −0.20
Cholesterol-free [1, 9]: 0.5865
Complete ([1]; NCI-H292 cells, complete media): 0.3893
Cholesterol-free media + simvastatin (0.04 μM) [2, 13]: 1.672
Complete Media [2, 14]: 1.494
Difference [2, 11]: −0.18

COc1ccc2[n-]c([S+]([O-])Cc3ncc(C)c(OC)c3C)nc2c1.[Na+] (centres unmarked) [Omeprazole (sodium)]
Difference [1, 3]: −0.07
Cholesterol-free [1, 4]: 0.7641
Complete [1, 5]: 0.6989
Cholesterol-free media + simvastatin (0.04 μM) [2, 19]: 0.9544
Complete Media [2, 20]: 0.9688
Difference [2, 22]: 0.01

CC(C(=O)O)c1ccc2c(c1)Cc1cccnc1O2 (centres unmarked) [Pranoprofen]
Cholesterol-free [1, 4]: 0.6134
Complete [1, 5]: 1.137
Difference [1, 23]: 0.52
Cholesterol-free media + simvastatin (0.04 μM) [2, 16]: 1.474
Complete Media [2, 17]: 1.136
Difference [2, 11]: −0.34

CC1COc2c(N3CCN(C)CC3)c(F)cc3c(=O)c(C(=O)O)cn1c23 (centres unmarked) [Ofloxacin]
Cholesterol-free [1, 9]: 1.221
Complete ([1]; NCI-H292 cells, complete media): 0.8562
Difference [1, 12]: −0.36
Cholesterol-free media + simvastatin (0.04 μM) [2, 13]: 1.154
Complete Media [2, 14]: 0.9389
Difference [2, 11]: −0.22

CCCN(CCC)CCc1cccc2c1CC(=O)N2 [Ropinirole (hydrochloride)]
Cholesterol-free [1, 9]: 1.101
Complete ([1]; NCI-H292 cells, complete media): 0.7874
Difference [1, 12]: −0.31
Cholesterol-free media + simvastatin (0.04 μM) [2, 6]: 0.879
Complete Media [2, 7]: 1.185
Difference [2, 8]: 0.31

CC(C)c1c(C(=O)Nc2ccccc2)c(-c2ccccc2)c(-c2ccc(F)cc2)n1CC[C@@H](O)C[C@@H](O)CC(=O)O [Atorvastatin (hemicalcium salt)]
Difference [1, 3]: −0.21
Cholesterol-free [1, 9]: 0.7947
Complete ([1]; NCI-H292 cells, complete media): 0.5817
Cholesterol-free media + simvastatin (0.04 μM) [2, 6]: 0.4555
Complete Media [2, 7]: 0.7295
Difference [2, 8]: 0.27
